Data on four substances can be found in patent publication US7371524B2, “Substituted azaporphyrins as fluorescence labels” (priority 2003, dated 2008).

What all share (format): physicochemical
A short description of data set [1]: Fluorescence intensity and polarization of free dye in buffers and glycerol (solvent sensitivity). The note with it: for solvent sensitivity of fluorescence intensity: buffer, buffer plus serum, glycerol; for Fluorescence Intensity (I), BBS / Polarization (mp), BBS: borate buffered saline pH 8.0; for Fluorescence Intensity (I), TDx Buffer: intensities comparable only horizontally. From the text: The performance of a fluorophore (fluorescent moiety) can be partly assessed by measurements on the free dye i.e., not in a complete fluorescent probe. Meaningful parameters in this kind of test include fluorescence intensity and polarization/anisotropy which usually are altered when the fluorophore is exposed to different ionic strengths, specific ions or biomolecules such as are present in blood serum. These effects may be thought of as “solvent effects” and may be produced either by changes in the interactions between molecules of the fluorophore to change the state of aggregation or between fluorophore molecules and the components of the solvent (nonspecific binding, NSB).
In Table 1 the performance of any one dye can be judged by the changes in fluorescence intensity (I), and/or the changes in polarization (mp, milli-polarization units) as one proceeds horizontally across the table. The “perfect” fluorescence label would have the same values for each of these parameters regardless of the solvent composition.
Abbreviations: mp: […]; TDx Buffer: Commercial buffer used in fluorescence polarization assays; Pc: phthalocyanine; BBS: Borate buffered saline (0.25 M NaCl, 0.0232 M boric acid and 0.00179 M sodium tetraborate. The pH is finally adjusted to 8.0+/−0.05 with 1M NaOH). When serum was tested, 25 μl of whole serum was added to 1 ml of BBS (containing 25 μl of the dye already added). Note that the relative concentrations of the various fluorophores is not known so that comparisons of fluorescence intensities are meaningful only when proceeding in a horizontal direction. An alternative to BBS for manipulating LJB-3 in aqueous solutions is borate buffered KCl (BBKCl) which is made by mixing 33.1 ml of 0.70 M boric acid, 4.0 ml of 0.50 M K2B4O7, 75 ml of 4.0 M KCl and water to make 1 liter: pH ca. 8.1.
Fluorescence measurements: These were made in a transient state polarization fluorometer (FAST-1, Hyperion, Inc. Miami, Fla.)

Data set [2] can be described thus: Passage through membranes and gel permeation chromatography (micelle formation). The note with it: PEG dye at 10^−4 M and above. From the text: In addition, an advantage emerges in that micelle formation by the PEG is absent. […] Also, the dye moves in the void volume in gel permeation chromatography designed to separate macromolecules from small molecules.
The nature of data set [3]: Near infrared absorbance of dye.

In the case of “Bis-hydroxy (2,3Dicarboxyphthalocyanino) Silicon IV”, in data set [1], the “solvent sensitivity of fluorescence intensity” value (“solvent sensitivity” below) is “less sensitive to serum and solvent than is the Al compound”.
As to DiphosphatoSidicarboxyphthalocyanine, in data set [1], the “Fluorescence Intensity (I), BBS” value is given as 1078; the “Polarization (mp), BBS” value turned out to be 2.4 mp; the “Fluorescence Intensity (I), Glycerol” value turned out to be 454; the “Polarization (mp), Glycerol” value amounted to 105 mp. Further, in data set [1], the “Polarization (mp), TDx Buffer” value came to 6.7 mp and the “Fluorescence Intensity (I), TDx Buffer” value amounted to 1069.
Take “Hydroxyaluminumphthalocyaninetrisulfonate [Al Pc trisulfonate, reference compound]”: in data set [1], the “sensitivity to ionic strength” value is recorded as “strong sensitivity to ionic strength”; the “Fluorescence Intensity (I), BBS” value was determined as 520; the “Polarization (mp), BBS” value turned out to be 3.4 mp; the “Fluorescence Intensity (I), Glycerol” value turned out to be 3155. Besides, in data set [1], the “Polarization (mp), Glycerol” value stood at 236 mp; the “Polarization (mp), TDx Buffer” value came to 1.7 mp; the “Fluorescence Intensity (I), TDx Buffer” value came out at 1108; the “solvent sensitivity” value is “very solvent-sensitive”.
As for “dihydroxy dicarboxy silicon phthalocyanine sulfonate [LJB-3]”, in data set [1], the “Fluorescence Intensity (I), BBS” value was found to be 741; the “Polarization (mp), BBS” value came out at 2.0 mp; the “Fluorescence Intensity (I), Glycerol” value is reported as 1351; the “Polarization (mp), Glycerol” value worked out at 199 mp. In data set [1], the “Polarization (mp), TDx Buffer” value was “−.03 mp”; the “Fluorescence Intensity (I), TDx Buffer” value was found to be 1230; the “solvent sensitivity” value is on record as “almost the same fluorescence output in buffer, buffer plus serum or glycerol alone”. Moreover, the “behaviour on membranes (30K daltons) and in gel permeation chromatography” value in data set [2] is “behaves as expected for a molecule of its formula weight”. Besides, the “near infrared absorbance maximum” value in data set [3] is recorded as 679 nm.
